According to US4820694A, “Modifications of 3-O-demethylmycinose in macrocin and lactenocin” (priority 1986, dated 1989):
≈ marks a conversion by molar mass, not a printed value. Read-outs that look alike come from different tables or passages of the source.

How the values were obtained:
Escherichia coli EC14 = experiment: standard agar-dilution MIC assay; assay type: cell-based; conditions: agar-dilution, read-out: MIC
Method: (§1) The MIC's in Table III were determined by standard agar-dilution assays. The MIC's in Table IV were obtained using conventional brothdilution microtiter tests.

[1] = test system: Haemophilus influenzae 76; experiment: standard agar-dilution MIC assay; assay type: cell-based; conditions: Haemophilus influenzae, 76
Method: as §1

[2] = test system: Haemophilus influenzae C.L.; experiment: standard agar-dilution MIC assay; assay type: cell-based; conditions: Haemophilus influenzae
Method: as §1

[3] = test system: Klebsiella pneumoniae X68; experiment: standard agar-dilution MIC assay; assay type: cell-based; conditions: Klebsiella pneumoniae, X68; agar-dilution; read-out: MIC
Method: as §1

[4] = test system: Pseudomonas aeruginosa X239; experiment: standard agar-dilution MIC assay; assay type: cell-based; conditions: Pseudomonas aeruginosa, X239; agar-dilution; read-out: MIC
Method: as §1

[5] = test system: Staphylococcus aureus V41; experiment: standard agar-dilution MIC assay; assay type: cell-based; conditions: Staphylococcus aureus, V41
Method: as §1

[6] = test system: Staphylococcus aureus X1.1; experiment: standard agar-dilution MIC assay; assay type: cell-based; conditions: Staphylococcus aureus, X1.1
Method: as §1

[7] = test system: Staphylococcus aureus X400; experiment: standard agar-dilution MIC assay; assay type: cell-based; conditions: Staphylococcus aureus, X400
Method: as §1

[8] = test system: Staphylococcus epidermidis EP12; experiment: standard agar-dilution MIC assay; assay type: cell-based
Method: as §1

[9] = test system: Staphylococcus epidermidis EPI1; experiment: standard agar-dilution MIC assay; assay type: cell-based; conditions: Staphylococcus epidermidis, EPI1
Method: as §1

[10] = test system: Streptococcus Group D 9960; experiment: standard agar-dilution MIC assay; assay type: cell-based; conditions: GROUPD9960, read-out: MIC
Method: as §1

[11] = test system: Streptococcus Group D X66; experiment: standard agar-dilution MIC assay; assay type: cell-based; conditions: read-out: MIC
Method: as §1

[12] = test system: Streptococcus pyogenes C203; experiment: standard agar-dilution MIC assay; assay type: cell-based; conditions: Streptococcus pyogenes, C203
Method: as §1

[13] = test system: Staphylococcus aureus S13E; experiment: microbe, parasite or virus in culture; assay type: cell-based; conditions: Staphylococcus aureus, S13E
Method: as §1

[14] = test system: Streptococcus pneumoniae Park I; experiment: microbe, parasite or virus in culture; assay type: cell-based; conditions: Streptococcus pneumoniae
Method: as §1

[15] = test system: Bordetella bronchiseptica; experiment: broth-dilution microtiter MIC test; assay type: cell-based; conditions: Bordetella bronchiseptica; broth-dilution microtiter; read-out: MIC
Method: as §1

[16] = test system: Mycoplasma gallisepticum 15E; experiment: broth-dilution microtiter MIC test; assay type: cell-based; conditions: Mycoplasmoides gallisepticum, 15E
Method: as §1

[17] = test system: Mycoplasma gallisepticum 29C; experiment: broth-dilution microtiter MIC test; assay type: cell-based; conditions: Mycoplasmoides gallisepticum, 29C
Method: as §1

[18] = test system: Mycoplasma gallisepticum 36H; experiment: broth-dilution microtiter MIC test; assay type: cell-based; conditions: Mycoplasmoides gallisepticum, 36H
Method: as §1

Mycoplasma hyorhinis 29E = experiment: broth-dilution microtiter MIC test; assay type: cell-based; conditions: Mycoplasma, 29E
Method: as §1

Mycoplasma synoviae 40A = experiment: broth-dilution microtiter MIC test; assay type: cell-based; conditions: Mycoplasmopsis synoviae, 40A
Method: as §1

[19] = test system: Pasteurella hemolytica 22C; experiment: broth-dilution microtiter MIC test; assay type: cell-based; conditions: Pasteurella, 22C
Method: as §1

[20] = test system: Pasteurella hemolytica 23C; experiment: broth-dilution microtiter MIC test; assay type: cell-based; conditions: Pasteurella, 23C
Method: as §1

[21] = test system: Pasteurella hemolytica 41D; experiment: broth-dilution microtiter MIC test; assay type: cell-based; conditions: Pasteurella, 41D
Method: as §1

[22] = test system: Pasteurella multocida 17E; experiment: broth-dilution microtiter MIC test; assay type: cell-based; conditions: Pasteurella multocida, 17E
Method: as §1

[23] = test system: Pasteurella multocida 22A; experiment: broth-dilution microtiter MIC test; assay type: cell-based; conditions: Pasteurella multocida, 22A
Method: as §1

[24] = test system: Pasteurella multocida 40G; experiment: broth-dilution microtiter MIC test; assay type: cell-based; conditions: Pasteurella multocida, 40G
Method: as §1

[25] = test system: Pasteurella multocida 60A; experiment: broth-dilution microtiter MIC test; assay type: cell-based; conditions: Pasteurella multocida, 60A
Method: as §1

[26] = test system: Pasteurella multocida 68C; experiment: broth-dilution microtiter MIC test; assay type: cell-based; conditions: Pasteurella multocida, 68C
Method: as §1

[27] = test system: Staphylococcus aureus 19C; experiment: broth-dilution microtiter MIC test; assay type: cell-based; conditions: Staphylococcus aureus, 19C
Method: as §1

Streptococcus sp. 19F = experiment: broth-dilution microtiter MIC test; assay type: cell-based; conditions: Streptococcus, SP.19F
Method: as §1

[28] = test system: Streptococcus pyogenes C203; experiment: protection of mice experimentally infected with S. pyogenes C203; assay type: in vivo; conditions: mice, mg/kg × 2, doses given 1 and 4 hours postinfection, read-out: ED50
Method: The formula 1 compounds have shown in vivo antimicrobial activity against experimentally-induced infections in laboratory animals. When two doses of test compound were administered to mice experimentally infected with S. pyrogenes C203, the activity observed was measured as an ED50 value [effective dose in mg/kg to protect 50% of the test animals: see Warren Wick, et al., J. Bacteriol. 81, 233-235 (1961)].
^a mg/kg × 2; doses given 1 and 4 hours postinfection

[29] = test system: Staphylococcus epidermidis 222; experiment: standard agar-dilution MIC assay; assay type: cell-based; conditions: Staphylococcus epidermidis, 222
Method: as §1

[30] = broth-dilution microtiter, read-out: MIC
[31] = broth-dilution microtiter, Avian isolate, read-out: MIC

| SMILES | MIC (Escherichia coli EC14) [µg/mL] | MIC [3] [µg/mL] | MIC [4] [µg/mL] | MIC [5] [µg/mL] | MIC [6] [µg/mL] | MIC [7] [µg/mL] | MIC [9] [µg/mL] | MIC [10] [µg/mL] | MIC [11] [µg/mL] | MIC [12] [µg/mL] | MIC [13] [µg/mL] | MIC [14] [µg/mL] | MIC [15] [µg/mL] | MIC [16] [µg/mL] | MIC [17] [µg/mL] | MIC [18] [µg/mL] | MIC (Mycoplasma hyorhinis 29E) [µg/mL] | MIC (Mycoplasma synoviae 40A) [µg/mL] | MIC [27] [µg/mL] | MIC (Streptococcus sp. 19F) [µg/mL] | also measured |
| --- | --- | --- | --- | --- | --- | --- | --- | --- | --- | --- | --- | --- | --- | --- | --- | --- | --- | --- | --- | --- | --- |
| CCC1OC(=O)CC(O)C(C)C(OC2OC(C)C(OC3CC(C)(O)C(O)C(C)O3)C(N(C)C)C2OC(C)=O)C(CC=O)CC(C)C(=O)C=CC(C)=CC1COC1OC(C)C(OC(C)=O)C(OC(=O)COc2ccccc2)C1OC (centres unmarked) [Compound 19, 2',4'"-Di-O-acetyl-3'"-O-phenoxyacetyl-macrocin] | > 128 | > 128 | > 128 | 1 (≈ 0.893 µM) | 1 (≈ 0.893 µM) | 2 (≈ 1.79 µM) | 1 (≈ 0.893 µM) | 2 (≈ 1.79 µM) | 2 (≈ 1.79 µM) | 0.5 (≈ 0.446 µM) | 1 (≈ 0.893 µM) | 0.25 (≈ 0.223 µM) | > 50 | 25 (≈ 22.3 µM) | 0.78 (≈ 0.696 µM) | 50 (≈ 44.6 µM) | 3.12 (≈ 2.78 µM) | 0.78 (≈ 0.696 µM) | 6.25 (≈ 5.58 µM) | 1.56 (≈ 1.39 µM) | MIC ([1]; agar-dilution, Ampicillin-resistant strain, read-out: MIC): > 128 µg/mL; MIC ([2]; agar-dilution, Ampicillin-sensitive strain, read-out: MIC): > 128 µg/mL; MIC [8]: 1 µg/mL (≈ 0.893 µM); MIC [19, 30]: > 50 µg/mL; MIC [20, 30]: > 50 µg/mL; MIC [21, 30]: > 50 µg/mL; MIC ([22]; broth-dilution microtiter, Bovine isolate, read-out: MIC): > 50 µg/mL; MIC [23, 30]: > 50 µg/mL; MIC [24, 30]: > 50 µg/mL; MIC [25, 31]: > 50 µg/mL; MIC [26, 30]: > 50 µg/mL |
| CCC1OC(=O)CC(O)C(C)C(OC2OC(C)C(OC3CC(C)(O)C(O)C(C)O3)C(N(C)C)C2OC(C)=O)C(CC=O)CC(C)C(=O)C=CC(C)=CC1COC1OC(C)C(OC(=O)COc2ccccc2)C(O)C1OC (centres unmarked) [Compound 13, 2'-O-Acetyl-4'"-O-phenoxyacetyl-macrocin] | > 128 | > 128 | > 128 | 1 (≈ 0.927 µM) | 1 (≈ 0.927 µM) | 2 (≈ 1.85 µM) | 1 (≈ 0.927 µM) | 1 (≈ 0.927 µM) | 1 (≈ 0.927 µM) | 1 (≈ 0.927 µM) | 2 (≈ 1.85 µM) | 0.25 (≈ 0.232 µM) | > 50 | 12.5 (≈ 11.6 µM) | 0.39 (≈ 0.362 µM) | 12.5 (≈ 11.6 µM) | 3.12 (≈ 2.89 µM) | 0.39 (≈ 0.362 µM) | 3.12 (≈ 2.89 µM) | 1.56 (≈ 1.45 µM) | MIC [8]: 2 µg/mL (≈ 1.85 µM); MIC [19, 30]: > 50 µg/mL; MIC [20, 30]: > 50 µg/mL; MIC [21, 30]: > 50 µg/mL; MIC [22]: 50 µg/mL (≈ 46.4 µM); MIC [23, 30]: > 50 µg/mL; MIC [24, 30]: > 50 µg/mL; MIC [25, 31]: > 50 µg/mL; MIC [26]: 50 µg/mL (≈ 46.4 µM); ED50 ([28]; C203, Oral): > 100 mg/kg; ED50 ([28]; C203, sc, Subcutaneous): 7.2 mg/kg |
| CCC1OC(=O)CC(O)C(C)C(OC2OC(C)C(O)C(N(C)C)C2O)C(CC=O)CC(C)C(=O)C=CC(C)=CC1COC1OC(C)C(OC(=O)COc2ccccc2)C(OC(=O)COc2ccccc2)C1OC (centres unmarked) [Compound 36, 3",4"-Di-O-phenoxyacetyl-lactenocin] | > 128 | > 128 | > 128 | 2 (≈ 1.95 µM) | 2 (≈ 1.95 µM) | 2 (≈ 1.95 µM) | 2 (≈ 1.95 µM) | 2 (≈ 1.95 µM) | 2 (≈ 1.95 µM) | 0.5 (≈ 0.487 µM) | 2 (≈ 1.95 µM) | 1 (≈ 0.974 µM) | > 50 | 12.5 (≈ 12.2 µM) | 0.39 (≈ 0.38 µM) | 12.5 (≈ 12.2 µM) | 6.25 (≈ 6.09 µM) | 1.56 (≈ 1.52 µM) | 1.56 (≈ 1.52 µM) | 0.78 (≈ 0.76 µM) | MIC [1]: 32 µg/mL (≈ 31.2 µM); MIC [2]: 32 µg/mL (≈ 31.2 µM); MIC [29]: 0.5 µg/mL (≈ 0.487 µM); MIC [19]: 50 µg/mL (≈ 48.7 µM); MIC [20]: 25 µg/mL (≈ 24.4 µM); MIC [21]: 25 µg/mL (≈ 24.4 µM); MIC [22]: 50 µg/mL (≈ 48.7 µM); MIC [23]: 50 µg/mL (≈ 48.7 µM); MIC [24]: 50 µg/mL (≈ 48.7 µM); MIC [25]: 50 µg/mL (≈ 48.7 µM); MIC [26]: 25 µg/mL (≈ 24.4 µM); ED50 ([28]; C203, Oral): > 100 mg/kg; ED50 ([28]; C203, sc, Subcutaneous): 4.3 mg/kg |
